Results: patent US20240327493A1 (GEORGE MASON UNIVERSITY, priority 2023, published 2024)
“Also recorded” adds a separate entry of the source. Like-named read-outs stand apart in the source and are kept apart here.

Legend:
[1] = human serum diluted 1:4 in RPMI, ESI-MS, 0, 6, 24, 48 hours
Description: Angiotensin I was spiked in and used for normalization.
Human serum was diluted 1:4 in Gibco RPMI 1640 media (ThermoFisher Scientific, Waltham, MA, USA, Cat. No. 11-875-093) for a total of 1 mL and incubated at 37° C. for 15 minutes prior to time course. Next, 1 μL of the peptide stock was added to warmed serum for a final concentration of […] in the master mix. The rest of the time course was performed at room temperature. For each time point, aliquots of 100 μL were removed from the master mix and added to 200 μL of 3% trifluoroacetic acid. Samples were incubated on ice for 15 minutes before centrifugation at 16,000×g for 2.5 minutes. Supernatants were transferred to a clean tube and prepared for desalting via C18 column by adding 100 μL of sample buffer (20% acetonitrile, 2% trifluoroacetic acid) to supernatants before storage at—20° C. overnight. Samples were then processed through Pierce C18 spin columns (ThermoFisher Scientific, Cat. No. 89870) according to the manufacturer's instructions. […]
For ESI-MS analysis, serum stability samples were run on an Orbitrap Exploris 480 (ThermoFisher Scientific). […] ThermoFisher's Xcalibur 4.0 Data System was used for peptide quantification. […] The samples were batch reprocessed for quantification via peak area. Peptide abundances were normalized based on Angiotensin I abundance and quantified relative to initial abundance.

[2] = test system: human PBMCs co-cultured with OVCAR8 cells; test: Co-culture of OVCAR8 cells and stimulated human PBMCs, 10:1 OVCAR8:PBMC ratio; type: cell-based; settings: MN1.4 450, 100 or 10 μM, 24 hours, FIG. 10A
Description: For this model, PBMCs and cancer cells were both stimulated prior to co-culture to promote expression of PD-1 and PD-L1, respectively.
Stimulation of the PBMCs causes them to release inflammatory cytokines including IL-2 and TNFα,
OVCAR8 cells, generously provided by the Gottesman Lab (National Institutes of Health, Bethesda, MD, USA), and MDA-MB-231 cells (American Type Culture Collection, Rockville, MD, USA) were cultured in Gibco RPMI 1640 media (ThermoFisher Scientific, Cat. No. 11-875-093) supplemented with 10% Gibco fetal bovine serum (ThermoFisher Scientific, Cat. No. 10437028), and 1% penicillin/streptomycin (10,000 U/mL pen, 10 mg/mL strcp) from MilliporeSigma (Burlington, MA, USA, Cat. No. P4333). Cells were cultured at 37° C. and 5% CO2. […]
For co-culture experiments with excess OVCAR8 ratios, OVCAR8 cells were seeded at a density of 2×10^5 cells/mL on a 6-well plate and allowed to adhere overnight. […] On Day 3, concentrations of PBMCs and OVCAR8 cells (harvested from a control well) were measured using the QuadCount Automated Cell Counter (Accuris Instruments). The concentration of PBMCs required for a 10:1 OVCAR8:PBMC ratio was calculated from the OVCAR8 concentration. […]
For experiments analyzed via IL-2 PCR-ELISA, the levels of IL-2 in the collected supernatants were measured using the IL-2 Human ProQuantum Immunoassay Kit (ThermoFisher Scientific, Cat. No. A35603). […]

[3] = human serum diluted 1:4 in RPMI, MALDI-TOF-MS, up to 6 hours
Description: Human serum was diluted 1:4 in Gibco RPMI 1640 media (ThermoFisher Scientific, Waltham, MA, USA, Cat. No. 11-875-093) for a total of 1 mL and incubated at 37° C. for 15 minutes prior to time course. Next, 1 μL of the peptide stock was added to warmed serum for a final concentration of […] in the master mix. The rest of the time course was performed at room temperature. For each time point, aliquots of 100 μL were removed from the master mix and added to 200 μL of 3% trifluoroacetic acid. Samples were incubated on ice for 15 minutes before centrifugation at 16,000×g for 2.5 minutes. Supernatants were transferred to a clean tube and prepared for desalting via C18 column by adding 100 μL of sample buffer (20% acetonitrile, 2% trifluoroacetic acid) to supernatants before storage at—20° C. overnight. Samples were then processed through Pierce C18 spin columns (ThermoFisher Scientific, Cat. No. 89870) according to the manufacturer's instructions. Desalted samples were dried under nitrogen and stored at −20° C. until mass spectrometry analysis.
For MALDI-TOF-MS analysis, serum stability samples were reconstituted in 200 μL of 0.1% formic acid. Samples were then diluted 1:10 in a MALDI matrix containing a 50 fmol/μL solution of Angiotensin I as a control. […]

For `CC[C@H](C)[C@@H]1NC(=O)[C@H](CCSC)NC(=O)[C@H](C)NC(=O)[C@H](CCCNC(=N)N)NC(=O)[C@@H](N)CSSC[C@@H](C(=O)O)NC(=O)[C@H]([C@@H](C)CC)NC(=O)[C@H](CCCNC(=N)N)N(C)C(=O)[C@H](CCCCN)NC(=O)[C@H](Cc2ccc(O)cc2)NC(=O)[C@H](CC(=O)O)NC(=O)[C@H](C)NC(=O)CNC(=O)CNC(=O)[C@H](Cc2ccc(O)cc2)NC(=O)[C@H](CO)NC1=O` [SEQ ID NO. 5, CRAMISYGGADYKXIC], the Degradation in serum [1] was “not significantly degraded at 48 hours”, the IL-2 secretion [2] was “secretion of IL-2 reduced in a dose dependent manner” and the IL-2 secretion ([2]; listed as MN1.4) was “enhanced the suppression of IL-2 secretion by T cells in a dose-dependent manner; also recorded: decreased released IL-2 in a dose dependent manner”. For the same compound, the Degradation in serum [3] was “still present after 6 hours in serum without significant degradation”.
